# Read-outs that look alike come from different tables or passages of the source.
# Experiments:
# [1] = test system: Mouse Collagen-induced arthritis; assay: Therapeutic mouse collagen-induced arthritis (mCIA) model; assay type: in vivo; settings: mice, dosing day 34 through day 49, read-out: Therapeutic mCIA (ED50 dose)
# Description: Mouse Collagen-induced arthritis is a commonly used chronic, preclinical model of rheumatoid arthritis in which joint swelling and bone destruction occur following immunization with type II collagen. Reduction of disease incidence and severity has been shown previously to be predictive of disease-modification and signs and symptoms mitigation, respectively, in a clinical setting.
# In the therapeutic mCIA model, induction of disease incidence and severity was synchronized via LPS stimulation. Male […] mice were immunized with 100 ug of bovine type II collagen (bCII) on day 0. All mice received an intraperitoneal injection of 20 μg of LPS on day 28 and disease was allowed to develop through day 34. At day 34, all mice had disease (incidence=100%) with an average severity score of seven. Dosing of compounds was initiated in the therapeutic mode on day 34 and continued through day 49. Different treatments were compared by measuring the decrease in incidence (i.e., resolution of disease) and the decrease in severity of paw swelling over time.
# [2] = test system: IL-6, Human A549 lung epithelial cells; assay: IL-6 inhibition in IL-1β-stimulated A549 cells; assay type: cell-based; settings: for inhibition: A549, A549 cells, Prednisolone (1 μM) = 100% inhibition control
# Method: Human A549 lung epithelial cells (American Type Culture Collection, Rockville, Md.) were cultured in Kaighn's F-12K medium with penicillin-streptomycin (10 U/mL) and 10% heat-inactivated fetal bovine serum (all from Invitrogen, Grand Island, N.Y.). A549 cells were plated at a density of 30,000 cells/well in 96-well plates and incubated overnight at 37° C. and with 5% CO2. The cells were serum-starved by replacing the growth medium with serum-free Kaighn's F-12K medium with penicillin-streptomycin (10 U/mL) and, again, incubating overnight at 37° C. and with 5% CO2. On the third day, the medium was replaced with fresh serum-free medium and the cells were incubated with or without compound (vehicle was DMSO at 0.1% maximum concentration) for approximately 1 hour and then stimulated with 1 ng/mL recombinant human IL-1β (R&D Systems, Minneapolis, Minn.) for 20 hours at 37° C. and with 5% CO2. Cell supernatants were collected for determination of IL-6 levels using MSD (Meso Scale Discovery, Gaithersburg, Md.) 96-well Single Spot plates as per the manufacturer's instructions. Plates were read with an MSD Sector Imager 6000. […] Vehicle was used to define the 0% inhibition control. Percent inhibition for each compound concentration, relative to these controls, was calculated using Excel (Microsoft, Redmond, Wash.). IC50 values were generated using GraFit 5.0 data analysis software (Erithacus Software Ltd., Surrey, UK).
# Serum osteocalcin = Serum osteocalcin suppression, 28-day repeat dose mouse model; assay type: in vivo, mice; settings: for ED50: Mus musculus, 672 h, mice, oral gavage 28 days, serum osteocalcin
# LPS-induced serum TNFα = LPS-induced serum TNFα suppression, 28-day repeat dose mouse model; assay type: in vivo; settings: 672 h, mice, oral gavage 28 days
# [3] = Plasma exposure (AUC) in the mouse; assay type: in vivo
# [4] = test system: Cortical bone formation rate; assay: Cortical bone histomorphometry, bone formation rate (BFR); assay type: in vivo, mice; settings: 28-day repeat dose model; the 11th table
# Method: Sigma-Aldrich, St. […] Calcein incorporates into the bone mineral and allows measurement of bone formation rate. Calcein was dissolved in 2% sodium bicarbonate. During the tissue harvest, the left tibiae were excised and cleaned for cortical histomorphometry measurements. After all skin and muscle were removed, tibiae were placed in 70% ethanol (4° C.) in the dark for a minimum of 24 hours. Ground transverse sections were used for histomorphometric analysis of cortical bone. Bones were sectioned using a low-speed saw (lsomet, Buehler, Lake Bluff, Ill.) equipped with a diamond wafer blade. The end of each tibia was removed proximal to tibia-fibula synostosis and a […] cross-section was cut. Using a roughened glass plate and a cork, sections were ground to […] until transparent and all labels were distinguishable under a fluorescent microscope. […] Sigma-Aldrich, St. Louis, Mo.). Sections were mounted using Eukitt Quick Mounting Medium (#03989, Sigma-Aldrich, St. Louis, Mo.) after which coverslip was applied. […] Bone formation rate was calculated by the following equation: (Inter-label width/Label interval)*(Labeled perimeter/Bone perimeter). At least five samples were measured from each treatment group in each study.
# TNFα, U937 cells = assay: TNFα inhibition in LPS-stimulated differentiated U937 cells; assay type: cell-based; settings: Homo sapiens
# Method: Cells were differentiated to a monocyte/macrophage phenotype with phorbol 12-myristate 13-acetate (Sigma-Aldrich, St. Louis, Mo.), 20 ng/mL, overnight. […] Following recovery, the cells were scraped, counted, and plated in accordance to the experimental design prior to stimulation with LPS, as described below. U937 cells were differentiated and plated at a density of 200,000 cells/well in 96-well plates. […] Louis, Mo.) for four hours at 37° C. and with 5% CO2. Cell supernatants were collected for determination of TNFα levels using an in-house sandwich-type ELISA. Mouse anti-human TNFα monoclonal antibody (clone 28401.111) and biotinylated goat anti-human TNFα (R&D Systems, Minneapolis, Minn.) were used as the capture and detection antibodies, respectively. Streptavidin-horseradish peroxidase (HRP) (R&D Systems, Minneapolis, Minn.) and K-Blue Substrate/Red Stop (Neogen, Lexington, Ky.) were used as the detection system. Absorbance was measured at 650 nm. TNFα concentrations were interpolated from a human TNFα recombinant protein (R&D Systems, Minneapolis, Minn.) standard curve using a four parameter logistics model by Magellan 4.11 data analysis software (Tecan, Durham, N.C.). […] Vehicle was used to define the 0% inhibition control. Percent inhibition for each concentration of compound, relative to these controls, was calculated using Excel (Microsoft, Redmond, Wash.).
# [5] = A549, 20 h, A549 cells, 1 ng/mL IL-1β, 20 hours, read-out: IL-6 IC50
SMILES,ED50 [1],"IC50 [2, 5]",inhibition [2],ED50 (Serum osteocalcin),ED50 (LPS-induced serum TNFα),AUC(0-4 hr) as share of the AUC(0-24 hr) values [3],Cortical bone formation rate (BFR) EAUC50 [4],"IC50 ([2]; A549, value in brackets, footnote a: additional results that were found, read-out: IL-6 IC50 (nM), additional result)","Serum osteocalcin (OC) EAUC50 (Serum osteocalcin; 28-day repeat dose model, the 11th table)","IC50 (TNFα, U937 cells; U-937, 4 h, U937 cells, 100 ng/mL LPS, four hours, read-out: TNFα IC50)","IC50 (TNFα, U937 cells; U-937, value in brackets, footnote a: additional results that were found, read-out: TNFα IC50 (nM), additional result)"
"Cc1ncccc1NC(=O)c1ccc2c(c1)CC[C@@H]1C[C@@](O)(CCC(F)(F)F)CC[C@@]21Cc1ccccc1 [Comparator C, (4βS,7R,8αR)-4β-benzyl-7-hydroxy-N-(2-methylpyridin-3-yl)-7-(3,3,3-trifluoropropyl)-4β,5,6,7,8,8α,9,10-octahydrophenanthrene-2-carboxamide]",2 mg/kg,1.1 nM,82.6%,1.01 mg/kg,0.27 mg/kg,–,–,–,–,–,–
"Cc1ncccc1NC(=O)c1ccc2c(c1)C(=O)C[C@@H]1C[C@@](O)(C(F)(F)F)CC[C@@]21Cc1ccccc1 [Comparator E, (4β,7R,8αS)-4β-benzyl-7-hydroxy-N-(2-methylpyridin-3-yl)-10-oxo-7-(trifluoromethyl)-4β,5,6,7,8,8α,9,10-octahydrophenanthrene-2-carboxamide]",0.5 mg/kg,1.1 nM,79.7%,0.17 mg/kg,0.14 mg/kg,–,–,–,–,–,–
"Cc1ncccc1NC(=O)c1ccc2c(c1)[C@H](O)C[C@@H]1C[C@@](O)(C(F)(F)F)CC[C@@]21Cc1ccccc1 [Comparator F, (4βS,7R,8αR,10R)-4β-benzyl-7,10-dihydroxy-N-(2-methylpyridin-3-yl)-7-(trifluoromethyl)-4β,5,6,7,8,8α,9,10-octahydrophenanthrene-2-carboxamide]",> 10 mg/kg,7 nM,83.3%,1.19 mg/kg,2.11 mg/kg,–,–,–,–,–,–
Cc1ncccc1NC(=O)c1ccc2c(c1)C=C[C@@H]1C[C@@](O)(C(F)(F)F)CC[C@@]21Cc1ccccc1 [Comparator I],17 mg/kg,2.8 nM,67.5%,5.2 mg/kg,0.73 mg/kg,–,–,–,–,–,–
"Cc1ncc(NC(=O)c2ccc3c(c2)CC[C@@H]2C[C@@](O)(CCC(F)(F)F)CC[C@@]32Cc2ccccc2)c(C)n1 [Comparator J, (4βS,7S,8αR)-4β-benzyl-N-(2,4-dimethylpyrimidin-5-yl)-7-hydroxy-7-(3,3,3-trifluoropropyl)-4β,5,6,7,8,8α,9,10-octahydrophenanthrene-2-carboxamide]",3 mg/kg,291 nM,55%,0.73 mg/kg,0.09 mg/kg,–,–,–,–,–,–
"Cc1ncccc1NC(=O)c1ccc2c(c1)CC[C@@H]1C[C@@](O)(C(F)(F)F)CC[C@@]21Cc1ccccc1 [Example 1, (4βS,7R,8αR)-4β-benzyl-7-hydroxy-N-(2-methylpyridin-3-yl)-7-(trifluoromethyl)-4β,5,6,7,8,8α,9,10-octahydrophenanthrene-2-carboxamide]",–,–,–,–,–,more than 95%,–,–,–,–,–
C[C@]12C=CC(=O)C=C1CC[C@@H]1[C@@H]2[C@@H](O)C[C@@]2(C)[C@H]1CC[C@]2(O)C(=O)CO [Prednisolone],1.1 mg/kg,4.2 nM,102%,1 mg/kg,0.9 mg/kg,more than 95%,100 ng·h/mL,4.6 nM,560 ng·h/mL,14.9 nM,15.6 nM
